Laboratory results reported in patent US4994270A, “A54145 antibiotics and process for their production” (Eli Lilly and Company, priority 1988, dated 1991).
Values after ≈ are worked out from the molar mass of the structure shown. Starred links: 1 amine or outer side, 2 acyl side, 3 side chain; linkers in the order of their positions; H or OH if unused. Positions of bridges follow the written chain, without caps; N, C: chain ends. Non-standard residues stand in square brackets, D forms with d. Residues, ends and D or L forms follow the SMILES beside them. ξ: configuration not given here. *: point of attachment. Ileψ(thiazoline)Cys = CC[C@H](C)[C@H](N)C1=N[C@H](C(=O)*)CS1; ξAsp(3ξ-OMe) = COC(C(=O)O)C(N)C(=O)O; X1 = CC(CC(=O)O)C(N[*:1])C(=O)[*:2]; ξAsn(3ξ-OH) = NC(=O)C(O)C(N)C(=O)O; dOrn = NCCC[C@@H](N)C(=O)O; X3 = CCC(C)CCCCCCC(=O)*; X2 = CC(C)CCCCCCC(=O)*; Sar = CNCC(=O)O

Tests used:
[1] = tested on: Streptomyces fradiae A54145.1, A54145.2 and A54145.3; assay: Resistance to antibiotics, sensitivity discs on seeded ISP No. 2 agar plates; details: identical for A54145.1, A54145.2, A54145.3; lincomycin 2 μg, penicillin G 10 units, bacitracin 10 units, cephalothin 30 μg, gentamicin 10 μg, neomycin 30 μg, oleandomycin 15 μg, rifampin 5 μg, streptomycin 10 μg, tetracycline 30 μg, tobramycin 10 μg, vancomycin 30 μg
Experimental: Resistance to antibiotics was measured by padding antibiotic sensitivity discs onto the surface of seeded ISP No. 2 agar plates.

[2] = tested on: Staphylococcus aureus S13E; assay: MIC, conventional agar-dilution assay; assay type: cell-based
Experimental: (§1) The A54145 antibiotics inhibit the growth of pathogenic bacteria. […] The MIC's in Table IX were determined by conventional agar-dilution assays.

[3] = tested on: Staphylococcus aureus V41; assay: MIC, conventional agar-dilution assay; assay type: cell-based
Experimental: as §1

[4] = tested on: Staphylococcus aureus X1.1; assay: MIC, conventional agar-dilution assay; assay type: cell-based
Experimental: as §1

[5] = tested on: Staphylococcus aureus X400; assay: MIC, conventional agar-dilution assay; assay type: cell-based
Experimental: as §1

[6] = tested on: Staphylococcus epidermidis 222; assay: MIC, conventional agar-dilution assay; assay type: cell-based
Experimental: as §1

[7] = tested on: Staphylococcus epidermidis EPI1; assay: MIC, conventional agar-dilution assay; assay type: cell-based
Experimental: as §1

[8] = tested on: Streptococcus pneumoniae Park1; assay: MIC, conventional agar-dilution assay; assay type: cell-based
Experimental: as §1

[9] = tested on: Streptococcus pyogenes C203; assay: MIC, conventional agar-dilution assay; assay type: cell-based
Experimental: as §1

[10] = tested on: Streptococcus sp. group 2041; assay: MIC, conventional agar-dilution assay; assay type: cell-based
Experimental: as §1

[11] = tested on: Streptococcus sp. group D X66; assay: MIC, conventional agar-dilution assay; assay type: cell-based
Experimental: as §1

CO[C@H]1/C=C/O[C@@]2(C)Oc3c(C)c(O)c4c(O)c(c(/C=N/N5CCN(C)CC5)c(O)c4c3C2=O)NC(=O)/C(C)=C\C=C\[C@H](C)[C@H](O)[C@@H](C)[C@@H](O)[C@@H](C)[C@H](OC(C)=O)[C@@H]1C [rifampin]
resistance or sensitivity of the strains to antibiotic discs [1]: sensitive

COC(C(=O)O)C1NC(=O)C(CCCCN)NC(=O)C(CC(=O)O)NC(=O)C(C)NC(=O)CN(C)C(=O)C(NC(=O)C(NC(=O)C(CCC(=O)O)NC(=O)C(Cc2c[nH]c3ccccc23)NC(=O)CCCCCCC(C)C)C(O)C(N)=O)C(C)OC(=O)C(C(C)C)NC(=O)C(CCC(=O)O)NC(=O)C(CC(N)=O)NC(=O)CNC1=O (stereo not drawn) [Component A54145F] (X2-WE[ξAsn(3ξ-OH)]T[Sar]ADK[ξAsp(3ξ-OMe)]GNEV; ester 4-C; configuration not given here)
MIC [2]: 16 µg/mL (≈ 9.81 µM) | MIC [3]: 16 µg/mL (≈ 9.81 µM) | MIC [4]: 16 µg/mL (≈ 9.81 µM) | MIC [5]: 16 µg/mL (≈ 9.81 µM) | MIC [6]: 8 µg/mL (≈ 4.91 µM) | MIC [7]: 16 µg/mL (≈ 9.81 µM) | MIC [8]: 8 µg/mL (≈ 4.91 µM) | MIC [9]: 4 µg/mL (≈ 2.45 µM) | MIC [10]: > 32 µg/mL | MIC [11]: 16 µg/mL (≈ 9.81 µM)

[H]/N=C(/N)N[C@H]1[C@H](O)[C@@H](O)[C@H](O[C@@H]2O[C@@H](C)[C@](O)(C=O)[C@H]2O[C@@H]2O[C@@H](CO)[C@H](O)[C@@H](O)[C@@H]2NC)[C@@H](N/C(N)=N\[H])[C@@H]1O [streptomycin]
resistance or sensitivity of the strains to antibiotic discs [1]: sensitive

CC[C@H](C)[C@H](N)C1=N[C@H](C(=O)N[C@@H](CC(C)C)C(=O)N[C@H](CCC(=O)O)C(=O)N[C@H](C(=O)N[C@H]2CCCCNC(=O)[C@H](CC(N)=O)NC(=O)[C@@H](CC(=O)O)NC(=O)[C@H](Cc3cnc[nH]3)NC(=O)[C@@H](Cc3ccccc3)NC(=O)[C@H]([C@@H](C)CC)NC(=O)[C@@H](CCCN)NC2=O)[C@@H](C)CC)CS1 [bacitracin] ({Ileψ(thiazoline)Cys}-L[dE]IK[dOrn]I[dF]H[dD]N; lactam 4-C)
resistance or sensitivity of the strains to antibiotic discs [1]: sensitive

NC[C@H]1O[C@H](O[C@H]2[C@H](O)[C@@H](O[C@H]3O[C@H](CO)[C@@H](O)[C@H](N)[C@H]3O)[C@H](N)C[C@@H]2N)[C@H](N)C[C@@H]1O [tobramycin]
resistance or sensitivity of the strains to antibiotic discs [1]: sensitive

CO[C@H]1C[C@H](O[C@H]2[C@H](C)[C@@H](O[C@@H]3O[C@H](C)C[C@H](N(C)C)[C@H]3O)[C@@H](C)C[C@@]3(CO3)C(=O)[C@H](C)[C@@H](O)[C@@H](C)[C@@H](C)OC(=O)[C@@H]2C)O[C@@H](C)[C@@H]1O [oleandomycin]
resistance or sensitivity of the strains to antibiotic discs [1]: sensitive

gentamicin
resistance or sensitivity of the strains to antibiotic discs [1]: sensitive

CCC[C@@H]1C[C@@H](C(=O)N[C@@H]([C@H]2O[C@H](SC)[C@H](O)[C@@H](O)[C@H]2O)[C@@H](C)O)N(C)C1 [lincomycin]
resistance or sensitivity of the strains to antibiotic discs [1]: resistant

CCC(C)CCCCCCC(=O)NC(Cc1c[nH]c2ccccc12)C(=O)NC(CCC(=O)O)C(=O)NC(C(=O)NC1C(=O)N(C)CC(=O)NC(C)C(=O)NC(CC(=O)O)C(=O)NC(CCCCN)C(=O)NC(C(OC)C(=O)O)C(=O)NCC(=O)NC(CC(N)=O)C(=O)NC(C(C)CC(=O)O)C(=O)NC(C(C)C)C(=O)OC1C)C(O)C(N)=O (stereo not drawn) [Component A54145C] (X3-WE[ξAsn(3ξ-OH)]T[Sar]ADK[ξAsp(3ξ-OMe)]GN[X1]V; ester 4-C; configuration not given here)
MIC [2]: 2 µg/mL (≈ 1.21 µM) | MIC [3]: 2 µg/mL (≈ 1.21 µM) | MIC [4]: 2 µg/mL (≈ 1.21 µM) | MIC [5]: 2 µg/mL (≈ 1.21 µM) | MIC [6]: 1 µg/mL (≈ 0.603 µM) | MIC [7]: 2 µg/mL (≈ 1.21 µM) | MIC [8]: 2 µg/mL (≈ 1.21 µM) | MIC [9]: 0.5 µg/mL (≈ 0.301 µM) | MIC [10]: 4 µg/mL (≈ 2.41 µM) | MIC [11]: 4 µg/mL (≈ 2.41 µM)
